Source: patent US20100022582A1, “Tetrahydroisoquinoline Compound and Medicinal Use Thereof” (priority 2005, published 2010)

What was measured:
[1] = tested on: THP-1 cell-derived macrophage; experiment: Cholesterol ester accumulation-inhibitory activity (THP-1 cell-derived macrophage foam cell formation); format: cell-based; conditions: THP-1 macrophage, acetyl LDL, 3 days
Description: THP-1 cells (DAINIPPON PHARMACEUTICAL CO., LTD.) were subcultured in RPMI-1640 medium containing 10% fetal calf serum (FBS), and cells at 6-13th passage after purchase were used. The cells were suspended in FBS-containing RPMI-1640 medium to give a suspension having a concentration of 4×10^5 cells/mL. The cell suspension was seeded on 12-well microplate by 1 mL, and treated with phorbol 12-myristate 13-acetate (PMA, 200 nM) as a differentiation inducer into macrophage. Then, acetyl LDL (400 μg/mL) separately prepared from LDL derived from plasma of a rabbit with genetic hyperlipidemia (KHC rabbit, Japan Laboratory Animals Inc.) was added. A test compound further dissolved in dimethyl sulfoxide (DMSO) and diluted with FBS-containing RPMI-1640 medium and a control solvent were applied. After cultivation in a carbon dioxide incubator for 3 days, the cells were washed with phosphate-buffered saline (pH 7.0), and the lipid was extracted with hexane-isopropanol (3:2). In addition, the cells were lysed with 1N-NaOH, and the protein content was measured. Free cholesterol and cholesterol ester in the lipid extraction sample were measured according to the method of Kunitomo et al. [Japan. J. Pharmacol., 34, 153-158 (1984)]. Cholesterol esters in the control cells and the cells treated with the test compound were compared, and the cholesterol ester accumulation inhibitory rate of the test compound was calculated.

liver ACAT = experiment: ACAT inhibitory activity (rabbit liver microsome, cholesteryl oleate production); format: biochemical, Japanese white rabbits; conditions: 37° C. for 20 min
Description: Male Japanese white rabbits (body weight 2-2.5 kg) were bred on 100 g of a high cholesterol feed (feed added with cholesterol 1%, CLEA Japan, Inc.) daily for 4 weeks and sacrificed by exsanguination under anesthesia. The liver was removed, homogenated and centrifuged at 10,000 rpm and 4° C. for 15 min. The obtained supernatant was further centrifuged at 41,000 rpm and 4° C. for 60 min to give a microsome fraction. To a 0.15 M phosphate buffer were added the microsome suspension as an enzyme specimen, dimethyl sulfoxide (DMSO) or a solution (3 μL) of a test compound in DMSO and [1-14C]-oleoyl-CoA to be a reaction substrate to the total amount of 300 μL. After incubation at 37° C. for 20 min, a mixed solution of chloroform-methanol was added to quench the reaction. Water was added thereto and mixed, and the chloroform layer was separated. The solvent was evaporated to dryness and the residue was redissolved in n-hexane. The resulting solution was subjected to thin layer chromatography using a silica gel plate. The spot of cholesteryl oleate on the silica gel plate was scraped and quantified on a liquid scintillation counter. The ACAT inhibitory activity of the test compound is shown in cholesteryl oleate production inhibitory rate (%) [level of inhibition of cholesteryl oleate production as compared to the control].

Row | Compound | cholesteryl ester accumulation inhibitory rate (%) (concentration: 10^−6 M) [1] | liver ACAT inhibition rate (%) (concentration: 10^−6 M) (liver ACAT)
1 | Cc1cc(NC(=O)[C@@H]2Cc3ccc(NS(C)(=O)=O)cc3CN2C(=O)CC(C)(C)C)c(C)c(C)c1O [Example 106, 2-(3,3-dimethylbutyryl)-N-(4-hydroxy-2,3,5-trimethylphenyl)-7-methanesulfonylamino-1,2,3,4-tetrahydroisoquinoline-(3S)-carboxamide] | 76.9 | 89.6
2 | CCCC(=O)N1Cc2cc(N(C)C)ccc2C[C@H]1C(=O)Nc1cc(C)c(O)c(C)c1C.Cl [Example 71, 2-butyryl-7-dimethylamino-N-(4-hydroxy-2,3,5-trimethylphenyl)-1,2,3,4-tetrahydroisoquinoline-(3S)-carboxamide hydrochloride] | 79.2 | 
3 | CCCCCC(=O)N1Cc2cc(N3CCNCC3)ccc2C[C@H]1C(=O)Nc1cc(C)c(O)c(C)c1C [Example 121, 2-hexanoyl-N-(4-hydroxy-2,3,5-trimethylphenyl)-7-(piperazin-1-yl)-1,2,3,4-tetrahydroisoquinoline-(3S)-carboxamide] | 86.8 | 
4 | CCCCCCCC(=O)N1Cc2ccccc2C[C@H]1C(=O)Nc1c(C(C)C)cccc1C(C)C [Example 3, N-(2,6-diisopropylphenyl)-2-octanoyl-1,2,3,4-tetrahydroisoquinoline-(3S)-carboxamide] |  | 93.3
5 | CCCCCCCC(=O)N1Cc2ccccc2C[C@@H]1C(=O)Nc1c(C)cc(C)cc1C [Example 26, 2-octanoyl-N-(2,4,6-trimethylphenyl)-1,2,3,4-tetrahydroisoquinoline-(3R)-carboxamide] |  | 83.8
6 | CCCCCCCC(=O)N1Cc2ccccc2C[C@H]1C(=O)Nc1cc(C)c(O)c(C)c1C [Example 49, N-(4-hydroxy-2,3,5-trimethylphenyl)-2-octanoyl-1,2,3,4-tetrahydroisoquinoline-(3S)-carboxamide] |  | 96.8
7 | CCC(C)(C)C(=O)N1Cc2ccccc2C[C@H]1C(=O)Nc1c(C)cc(C)c(NS(C)(=O)=O)c1C [Example 19, 2-(2,2-dimethylbutyryl)-N-(3-methanesulfonylamino-2,4,6-trimethylphenyl)-1,2,3,4-tetrahydroisoquinoline-(3S)-carboxamide] | 66.4 | 
8 | CCCCCC(=O)N1Cc2cc(O)ccc2C[C@H]1C(=O)Nc1c(C(C)C)cc(N)cc1C(C)C.Cl [Example 114, N-(4-amino-2,6-diisopropylphenyl)-2-hexanoyl-7-hydroxy-1,2,3,4-tetrahydroisoquinoline-(3S)-carboxamide hydrochloride] |  | 87.5
9 | CCC(C)(C)C(=O)N1Cc2cc(N)ccc2C[C@H]1C(=O)Nc1cc(C)c(O)c(C)c1C.Cl [Example 104, 7-amino-2-(2,2-dimethylbutyryl)-N-(4-hydroxy-2,3,5-trimethylphenyl)-1,2,3,4-tetrahydroisoquinoline-(3S)-carboxamide hydrochloride] | 77.3 | 80.6
10 | CCCCCCCC(=O)N1Cc2ccccc2C[C@H]1C(=O)Nc1c(C)cc(C)cc1C [Example 9, 2-octanoyl-N-(2,4,6-trimethylphenyl)-1,2,3,4-tetrahydroisoquinoline-(3S)-carboxamide] |  | 88.6
11 | CCCCCC(=O)N1Cc2cc(OCCN3CCCC3)ccc2C[C@H]1C(=O)Nc1cc(C)c(O)c(C)c1C.Cl [Example 118, 2-hexanoyl-N-(4-hydroxy-2,3,5-trimethylphenyl)-7-[2-(pyrrolidin-1-yl)ethoxy]-1,2,3,4-tetrahydroisoquinoline-(3S)-carboxamide hydrochloride] | 68.6 | 
12 | Cc1cc(NC(=O)[C@@H]2Cc3ccc(N4CCCC4)cc3CN2C(=O)C(C)C)c(C)c(C)c1O.Cl [Example 93, N-(4-hydroxy-2,3,5-trimethylphenyl)-2-isobutyryl-7-(pyrrolidin-1-yl)-1,2,3,4-tetrahydroisoquinoline-(3S)-carboxamide hydrochloride] | 83.4 | 
13 | CCC(=O)N1Cc2cc(N3CCCC3)ccc2C[C@H]1C(=O)Nc1cc(C)c(O)c(C)c1C.Cl [Example 91, N-(4-hydroxy-2,3,5-trimethylphenyl)-2-propionyl-7-(pyrrolidin-1-yl)-1,2,3,4-tetrahydroisoquinoline-(3S)-carboxamide hydrochloride] | 71.1 | 
14 | CCCCCC(=O)N1Cc2cc(N(C)C)ccc2C[C@@H]1C(=O)Nc1cc(C)c(O)c(C)c1C.Cl [Example 74, 7-dimethylamino-2-hexanoyl-N-(4-hydroxy-2,3,5-trimethylphenyl)-1,2,3,4-tetrahydroisoquinoline-(3R)-carboxamide hydrochloride] | 74.7 | 
15 | CCCCCCCC(=O)N1Cc2cc(N(C)C)ccc2C[C@H]1C(=O)Nc1c(C)cc(C)cc1C [Example 76, 7-dimethylamino-2-octanoyl-N-(2,4,6-trimethylphenyl)-1,2,3,4-tetrahydroisoquinoline-(3S)-carboxamide] |  | 76.7
16 | CCCCCC(=O)N1Cc2cc(N)ccc2C[C@H]1C(=O)Nc1cc(C)c(O)c(C)c1C.Cl [Example 80, 7-amino-2-hexanoyl-N-(4-hydroxy-2,3,5-trimethylphenyl)-1,2,3,4-tetrahydroisoquinoline-(3S)-carboxamide hydrochloride] | 94.5 | 93.4
17 | CCCCCC(=O)N1Cc2cc(NS(C)(=O)=O)ccc2C[C@H]1C(=O)Nc1cc(C)c(O)c(C)c1C [Example 95, 2-hexanoyl-N-(4-hydroxy-2,3,5-trimethylphenyl)-7-methanesulfonylamino-1,2,3,4-tetrahydroisoquinoline-(3S)-carboxamide] | 80.4 | 
18 | CCCCCC(=O)N1Cc2cc(O)ccc2C[C@H]1C(=O)Nc1cc(C)c(O)c(C)c1C [Example 116, 2-hexanoyl-7-hydroxy-N-(4-hydroxy-2,3,5-trimethylphenyl)-1,2,3,4-tetrahydroisoquinoline-(3S)-carboxamide] |  | 97.2
19 | CCCCCC(=O)N1Cc2cc(N(C)C)ccc2C[C@H]1C(=O)Nc1cc(C)c(O)c(C)c1C.Cl [Example 83, 7-dimethylamino-2-hexanoyl-N-(4-hydroxy-2,3,5-trimethylphenyl)-1,2,3,4-tetrahydroisoquinoline-(3S)-carboxamide hydrochloride] | 100.2 | 97.0
20 | CCC(C)(C)C(=O)N1Cc2cc(N(C)C)ccc2C[C@@H]1C(=O)Nc1cc(C)c(O)c(C)c1C.Cl [Example 75, 7-dimethylamino-2-(2,2-dimethylbutyryl)-N-(4-hydroxy-2,3,5-trimethylphenyl)-1,2,3,4-tetrahydroisoquinoline-(3R)-carboxamide hydrochloride] | 93.4 | 88.8
21 | CCCCCC(=O)N1Cc2cc(OCCCO)ccc2C[C@H]1C(=O)Nc1cc(C)c(O)c(C)c1C [Example 119, 2-hexanoyl-7-(3-hydroxypropoxy)-N-(4-hydroxy-2,3,5-trimethylphenyl)-1,2,3,4-tetrahydroisoquinoline-(3S)-carboxamide] | 84.5 | 
